# Measurements from paper PMC6539903 (Molecules, 2019).
# What was measured:
# [1] = test system: SW620 xenografts tumor model; test: SW620 xenograft model in vivo; conditions: nude mice, 20 mg/kg intraperitoneal every 2 days, start about 100 mm^3
# Description: In view of potent cox-2 selective inhibitory activity and anti-colon cancer proliferation activity in vitro, compound 4b was further evaluated for anti-colon cancer activity in vivo. SW620 cells (5 × 10^6) were subcutaneously injected into the rightwing nude mice to establish a xenograft model. […]. Intraperitoneal administration was performed every 2 days and tumor volume changes were recorded for 12 consecutive days. […]. After 12 days of treatment, the tumor volumes of the two treatment groups were 43.71 mm^3 and 51.69 mm^3, respectively. Finally, the tumors of each group were removed and weighed to calculate the ratio of tumor weight to body weight. […] In contrast, body weight increased slightly in the vehicle group at the later stage of treatment (Figure 5C). […] This series of representative compounds 4b, as a selective COX-2 inhibitor for the targeted therapy of colon cancer, had prominent research prospect.
# Nude mice aged 6-8 weeks were purchased from the model animal research center of nanjing university and bred in a specific non-pathogenic environment. A xenograft model was established by subcutaneous injection of SW620 cells […] DMEM into the right wing (18–22 g) of nude mice. […]. Vehicle treatment groups were treated with polyethylene glycol (containing 1% DMSO). […] After administration, weighed every two days and measured tumor volume with a vernier caliper. […]
# A549 = test: MTT antiproliferation assay, A549; format: cell-based; conditions: Homo sapiens, 48 h, n = 3, read-out: IC50 ± SD A549
# Description: (§1) MCF-7 (human breast cell line), HeLa (human cervical cell line), A549 (human lung cell line), HepG2 (human liver cell line), SW620 (human colorectal cell line) and a non-cancer cell line, NCM460 (Human colonic epithelial cells) were preserved at the State Key Laboratory of Pharmaceutical Biotechnology, Nanjing University (Nanjing, China).
# (§2) The antiproliferative activity of the synthetic compounds against the SW620, MCF-7, HeLa, A549, HepG2, and NUM460 cell lines was evaluated by a colorimetric assay based on a modified standard (MTT). […] Thereafter, MTT (5 mg/mL in PBS) was added to each well and incubated for 4 h. 150 μL of DMSO was added to each well and shaken with a shaker. The absorbance (OD 570 nm) was read at 630 nm on an ELISA reader (ELx800, BioTek, montpelier, VT, USA). IC50 values for the compounds were calculated by comparison to DMSO treated control wells. Three replicate wells were used for each drug concentration. Each assay was performed three times.
# SW620 cells [2] = test: MTT antiproliferation assay, SW620; format: cell-based; conditions: Homo sapiens, SW-620, 48 h, n = 3, read-out: IC50 ± SD SW620
# Description: as §1, §2
# COX-1 = target: T1, COX-1 (Homo sapiens, UniProt P23219); test: COX-1 inhibition assay (COX-1 ELISA kit); format: biochemical; conditions: mean of four determinations; read-out: IC50 ± SD COX-1
# T1 construct: purchased Cayman Chemical 701170
# Description: (§3) 3-(4,5-Dimethylthiazol-2-yl)-2,5-diphenyltetrazolium (MTT) were purchased from Beyotime Institute of Biotechnology (Haimen, China). Annexcin V-FITC cell apoptosis assay kit (catalog No.BA11100) was purchased from BIO-BOX (Nanjing, China). Fibronectin (#F1056) and laminin (#L2020) were purchased from Sigma-Aldrich (St. Louis, MO, USA).
# (§4) Then 1 M HCl was added to the reaction mixture to stop the reaction, and one-tenth of the volume of saturated stannous chloride (50 mg/mL) was added. The reaction mixture was incubated at room temperature for 5 min, and PGF2 and PGH2 were produced.
# [3] = MTT cytotoxicity assay, non-cancer colon cells; format: cell-based; conditions: human, NCM460 colonic epithelial cells (non-cancer cell line), n = 3, non-cancer cell line, read-out: CC50 ± SD NUM460
# Description: Besides, the MTT assay was performed on a non-cancer line NCM460 to assess the cytotoxicity of the test compound to normal colon cells.
# as §1, §2
# MCF-7 = test: MTT antiproliferation assay, MCF-7; format: cell-based; conditions: Homo sapiens, MCF7, 48 h, n = 3, read-out: IC50 ± SD MCF-7
# Description: as §1, §2
# COX-2 = target: T2, COX-2 (Homo sapiens, UniProt P35354); test: COX-2 inhibition assay (COX-2 ELISA kit); format: biochemical
# T2 construct: purchased Cayman Chemical 701180
# T2 sequence (P35354 18-604): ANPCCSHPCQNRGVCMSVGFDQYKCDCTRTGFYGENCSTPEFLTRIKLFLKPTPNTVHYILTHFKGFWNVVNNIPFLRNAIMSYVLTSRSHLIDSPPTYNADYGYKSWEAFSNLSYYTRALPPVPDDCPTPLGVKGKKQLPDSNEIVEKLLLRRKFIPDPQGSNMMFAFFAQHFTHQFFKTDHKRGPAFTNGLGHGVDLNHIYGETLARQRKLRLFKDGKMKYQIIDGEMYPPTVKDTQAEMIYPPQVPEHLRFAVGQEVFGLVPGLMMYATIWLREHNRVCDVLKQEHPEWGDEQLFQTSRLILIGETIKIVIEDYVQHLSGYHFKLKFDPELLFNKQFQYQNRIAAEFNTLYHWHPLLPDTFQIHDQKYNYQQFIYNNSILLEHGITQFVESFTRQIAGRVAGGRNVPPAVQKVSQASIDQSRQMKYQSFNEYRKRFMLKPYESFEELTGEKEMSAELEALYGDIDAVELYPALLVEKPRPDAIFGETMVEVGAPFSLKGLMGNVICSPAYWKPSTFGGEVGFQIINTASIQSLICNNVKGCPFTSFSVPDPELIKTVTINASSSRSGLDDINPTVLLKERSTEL
# Description: as §3, §4
# HepG2 = test: MTT antiproliferation assay, HepG2; format: cell-based; conditions: Homo sapiens, 48 h, n = 3, read-out: IC50 ± SD HepG2
# Description: as §1, §2
# HeLa = test: MTT antiproliferation assay, HeLa; format: cell-based; conditions: Homo sapiens, 48 h, n = 3, read-out: IC50 ± SD HeLa
# Description: as §1, §2
# SW620 cells [4] = test: Cell apoptosis assay (Annexin V-FITC/PI flow cytometry); format: cell-based, human; conditions: 24 h (0 μM: 7.9%)
# Description: To confirm that antiproliferation activities of SW620 were associated with apoptosis, SW620 cell apoptosis induced by compound 4b was determined using flow cytometry with Annexin V-FITC/PI Apoptosis Detection Kit. […] The percentages of cell apoptosis 7.9%, 19.9%, 45.9%, and 65.0% were responding to the concentration of compound 4b 0 μM, 2.0 μM, 4.0 μM, and 8.0 μM, respectively.
# SW620 cells were seeded in the 6-well plate ([…]) and treated with compound 4b to induce apoptosis at final concentrations of 0, 2, 4, and 8 μM for 24 h. After incubation, the cells were extracted with trypsin and washed with cold PBS twice. Cells are then bound to 500 μL buffer and then annexin-v/FITC (5 μL) and PI (5 μL) were added to the medium for another 10 min to incubate darkness. Staining cells were analyzed by flow cytometry (Becton Dickinson, Franklin, NJ, USA). Flowjo 7.6.1 software (Emerald Biotech Co. Ltd., Hangzhou, China) was used for statistical analysis.
# T1 sequence (P23219 24-599): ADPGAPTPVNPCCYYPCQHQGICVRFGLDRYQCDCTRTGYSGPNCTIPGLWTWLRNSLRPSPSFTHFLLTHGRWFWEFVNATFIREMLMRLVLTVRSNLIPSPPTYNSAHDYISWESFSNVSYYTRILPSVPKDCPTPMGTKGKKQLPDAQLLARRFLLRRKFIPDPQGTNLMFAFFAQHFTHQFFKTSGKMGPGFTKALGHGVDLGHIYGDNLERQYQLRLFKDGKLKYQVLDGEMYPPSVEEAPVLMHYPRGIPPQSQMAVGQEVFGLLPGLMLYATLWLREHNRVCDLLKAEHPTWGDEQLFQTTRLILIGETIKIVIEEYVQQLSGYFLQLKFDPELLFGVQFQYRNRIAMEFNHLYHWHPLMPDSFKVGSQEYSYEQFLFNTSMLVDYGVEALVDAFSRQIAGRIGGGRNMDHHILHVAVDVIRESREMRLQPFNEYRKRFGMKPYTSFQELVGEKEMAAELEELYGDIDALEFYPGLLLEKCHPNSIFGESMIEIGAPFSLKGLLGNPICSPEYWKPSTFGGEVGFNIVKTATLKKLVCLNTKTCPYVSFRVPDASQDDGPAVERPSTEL
SMILES,tumor volume after 12 days of treatment [1] [mm^3],IC50 (A549) [µM],IC50 (SW620 cells [2]) [µM],IC50 (COX-1) [µM],CC50 at 48 h [3] [µM],IC50 (MCF-7) [µM],melting point [°C],Selectivity Index (SI) (COX-1 IC50/COX-2 IC50) (COX-2; in vitro COX-2 selectivity index),"IC50 (COX-2; mean of four determinations, read-out: IC50 ± SD COX-2) [µM]",IC50 (HepG2) [µM],IC50 (HeLa) [µM],"percentage of cell apoptosis (SW620 cells [4]; SW620, 2.0 μM) [%]","percentage of cell apoptosis (SW620 cells [4]; SW620, 4.0 μM) [%]","percentage of cell apoptosis (SW620 cells [4]; SW620, 8.0 μM) [%]"
"Cc1ccc(-c2cc(C(F)(F)F)nn2-c2ccc(S(N)(=O)=O)cc2)cc1 [Celecoxib, reference compound]",51.69,–,–,–,–,–,–,–,–,–,–,–,–,–
"Cc1ccc(C2=NN(c3ccc(S(N)(=O)=O)cc3)C(c3ccc4c(c3)OCO4)C2)cc1 (stereo not drawn) [Compound 4b, 4-(5-(Benzo[d][1,3]dioxol-5-yl)-3-(p-tolyl)-4,5-dihydro-1H-pyrazol-1-yl)benzenesulfonamide]",43.71,1.94 ± 0.06,0.86 ± 0.02,48.06 ± 0.35,134 ± 7.85,2.99 ± 0.13,200 to 201,137.3,0.35 ± 0.02,2.96 ± 0.14,2.98 ± 0.17,19.9,45.9,65.0
